TGI and GI50 data for 23 compounds are collected here from PubChem BioAssay (NCI).

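Cells were grown in 96-well plates and exposed to each compound for 48 hours at five concentrations; endpoints were interpolated linearly between bracketing concentrations, or set to the highest concentration if not reached. GI50 is the concentration that inhibits growth by half. TGI is the concentration that stops growth completely.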

Test in all cases: NCI anticancer screen, dose series, 48 h
Assay [1] deals with SR leukemia.
Assay [2] concerns SNB-19 CNS.
In assay [3] the test system is LOX IMVI melanoma.
For assay [4], the system named is SK-MEL-5 melanoma.
Assay [5] deals with OVCAR-4 ovarian.
In assay [6] the test system is A498 renal.
For assay [7], the system named is NCI-H522 lung.
The subject of assay [8] is 786-0 renal.
Assay [9] concerns T-47D breast.
The subject of assay [10] is MALME-3M melanoma.
The subject of assay [11] is MDA-N.

In the case of `Cc1cc(=O)[nH]c(NN2C(Cl)C(=O)C2c2ccc([N+](=O)[O-])cc2)n1` (centres undefined), the TGI is 34.5 µM in assay [1]; above 100 µM in [2]; 19.2 µM in assay [3]; 27.3 µM in [4]; 28.8 µM in [5].

On to `CC1(C)CC(=O)C2(CC(CSc3ccccc3)C(CS(=O)(=O)c3ccccc3)C2)C(=O)C1` (centres undefined), for which the TGI in [6], in assay [2], in assay [7], in assay [3], in [4] and in [8] was above 100 µM throughout. For the same compound, the TGI in assay [5] and in assay [9] was above 100 µM in each case.

With `O=C(O)c1ccccc1N=Cc1ccc(N(CCCl)CCCl)cc1`, the TGI in assay [6] is above 57.7 µM; in assay [2] it was above 100 µM; in assay [7] it was above 100 µM; in assay [3] it was above 100 µM; in [4], above 100 µM; in [10] it was above 100 µM. In assay [5], this compound showed a TGI above 100 µM.

In the case of `Cc1ccc(S(=O)(=O)Nn2c(O)c(C#N)c(-c3ccc(Cl)cc3)c(C#N)c2=O)cc1`, the TGI in assay [6], in [2], in [7], in assay [3], in assay [4] and in assay [10] was above 100 µM throughout. Also, the TGI in assay [8], in assay [5] and in assay [11] was above 100 µM in each case.

Turning to `Cc1cc(OC(=O)NCn2cc(-c3ccccc3)nn2)ccc1Cl`, the TGI in [1], in assay [2], in [7], in [3], in [4] and in assay [10] was above 100 µM throughout. The TGI in assay [8] and in assay [5] was above 100 µM each time.

For `CCOC(=O)c1cc(C)nc2c1c(=O)n(-c1ccccc1)c(=O)n2CCCCN1CCN(c2ccccc2)CC1`, the TGI in [6] is above 100 µM; in assay [1] it was 48.4 µM; in assay [7], above 100 µM; in assay [3], above 100 µM; in [4] it was above 100 µM; in assay [10] it was above 100 µM. In addition, the TGI in [8], in [5] and in assay [9] was above 100 µM throughout.

Consider `COc1ccc(C(SC2C(O)C(CO)OC2n2ccc(=O)[nH]c2=O)(c2ccccc2)c2ccc(OC)cc2)cc1` (centres undefined), for which the TGI came to 41 µM in assay [2]; 31.9 µM in assay [7]; 31.5 µM in assay [3]; 29 µM in [4]; 36.7 µM in [10]; 32 µM in [8]. In addition, the TGI in assay [5] was found to be 64.9 µM; in assay [11] it was 26.1 µM; in assay [9] it was 48.7 µM.

For the compound `CC1(C)CC2(CC(C)(C)N1O)NC(=O)OC2=O`, the TGI in assay [6], in [2], in [7], in assay [3], in [4] and in assay [10] was above 100 µM throughout. The compound also came in with a TGI in assay [5] above 100 µM.

For `CN(C)/N=N/c1nc2c(c(=O)n(C)c(=O)n2C)n1CC(O)CO` (centres undefined), the TGI in assay [2], in assay [7], in assay [4], in assay [10], in assay [8] and in assay [5] was above 100 µM in each case. Besides, the TGI in assay [11] and in assay [9] was above 100 µM throughout.

Regarding `COc1cccc(N[C@@H]2c3cc4c(cc3C(c3cc(OC)c(O)c(OC)c3)[C@H]3C(=O)OCC32)OCO4)c1` (some centres undefined), the TGI in assay [6] is 2.1 µM; in assay [2], 27.7 µM; in [7] it was 8.02 µM; in assay [3], 10.3 µM; in assay [4], 3.04 µM; in assay [10], 20.7 µM. In [5], this compound gave a TGI of 87.9 µM.

For `O=c1oc(C(C(F)(F)F)C(F)(F)F)nc2ccccc12`, the TGI in assay [6], in assay [1], in [2], in assay [7], in assay [3] and in assay [4] was above 100 µM in each case. Also, the TGI in assay [10], in assay [8] and in assay [5] was above 100 µM each time.

On to `COc1ccc(OC)c(SC(CC(=O)c2ccccc2)c2ccccc2)c1` (centres undefined), for which the TGI is above 100 µM in assay [1]; 27.8 µM in [2]; 29.2 µM in assay [7]; 28.7 µM in assay [4]; 38.5 µM in assay [10]; 29.2 µM in [8]. Moreover, the TGI in [5] is above 100 µM; in assay [9], 35.8 µM.

With `COc1cnc2c(c1)C(=O)c1c-2n(CCCNCCO)c(=O)c2ccncc12`, the GI50 in assay [6] was 0.772 µM; in assay [7] it was 0.607 µM; in assay [3], 0.431 µM; in assay [4], 1.43 µM; in assay [10], 1.1 µM; in assay [5], 1.38 µM. For the same compound, the GI50 in assay [9] was 0.845 µM. The TGI worked out at 2.62 µM in [6]; 7.26 µM in [7]; 3.9 µM in assay [3]; 3.38 µM in assay [4]; 2.82 µM in assay [10]; 7.46 µM in [5]. In assay [9], the TGI was determined as 37.5 µM.

For the compound `COc1cc(C2C3=C(COC3=O)Oc3cc4c(cc32)OCO4)cc(OC)c1O` (centres undefined), the TGI in assay [6] was 6.75 µM; in assay [1] it was above 100 µM; in [2], 27.6 µM; in assay [7], below 0.088 µM; in assay [3], 19 µM; in [4], below 0.0187 µM. Also, the TGI was determined as 39.5 µM in assay [10], 15.5 µM in assay [8], 47.8 µM in assay [5] and 60.3 µM in assay [9].

With `O=C(Nc1ccccc1C(=O)NCc1ccccc1)/C(=C/c1ccccc1)NC(=O)c1ccccc1`, the TGI in assay [6], in [1], in assay [2], in assay [7], in [3] and in assay [4] was above 100 µM each time. Moreover, the TGI in [8], in [5] and in assay [9] was above 100 µM each time.

Consider `COc1cc2cc(C(=O)N3CC(COS(C)(=O)=O)c4ccc(O)cc43)[nH]c2c(OC)c1OC` (centres undefined), for which the TGI is 0.012 µM in assay [2]; below 0.0001 µM in assay [7]; below 0.0001 µM in assay [4]; 0.0106 µM in assay [8]; 0.0416 µM in [9].

In the case of `CCOP(=O)(O)CN1CCNCCN(CP(=O)(O)OCC)CCNCC1`, the TGI in [6], in assay [2], in assay [7], in [3], in assay [4] and in assay [8] was above 100 µM in each case. The TGI in assay [5], in assay [11] and in [9] was above 100 µM each time.

Take `CCOP(=O)(OCC)/C(=C/c1cccs1)CC(C)=O`: the TGI in assay [6], in assay [2], in assay [3], in assay [4], in assay [10] and in [8] was above 100 µM throughout. In addition, the TGI in assay [5], in [11] and in assay [9] was above 100 µM in each case.

Turning to `CCN=C1C=CC(=C(c2ccc(N(CC)CC)cc2)c2ccc(N(CC)CC)cc2)c2ccccc21`, the figures for the GI50 in assay [6], in assay [2] and in assay [4] were 0.0692 µM, 0.0504 µM and 0.0363 µM, respectively. The TGI in assay [6] amounted to 0.444 µM; in assay [2], 1.47 µM; in [4], 0.133 µM.

With `Cc1ccccc1-c1nc2c(C(=O)NCCN(C)C)cccc2[nH]1`, the TGI in assay [6] was above 100 µM; in [2], above 100 µM; in assay [7], above 100 µM; in assay [3], above 100 µM; in [4], 53.7 µM; in assay [10], above 62.2 µM. The same compound came in with a TGI in assay [5] above 100 µM.

With `CC(=O)Nc1ccc(OC/C(N)=N/NC(=O)c2ccncc2)cc1`, the TGI in assay [6], in [2], in assay [7], in assay [3], in assay [8] and in [5] was above 100 µM in each case. For the same compound, the TGI in assay [11] and in assay [9] was above 100 µM throughout.

On to `O=C(CCN1CCN2c3ccccc3CCC2C1)c1ccc(F)cc1` (centres undefined), for which the TGI in assay [6] is above 100 µM; in [1], above 100 µM; in assay [2], 47.5 µM; in assay [7] it was 35.7 µM; in assay [3] it was above 100 µM; in assay [4] it was 49.9 µM. The TGI in assay [10] was 49.2 µM; in assay [8], 43.6 µM; in assay [5] it was 37.8 µM; in assay [9], 45.9 µM.

Take `CN=C(/N=c1\ssc(=NC)n1C)N(C)C`: the TGI in assay [6], in [1], in [2], in assay [7], in [3] and in assay [4] was above 100 µM in each case. For the same compound, the TGI in assay [8] and in [5] was above 100 µM each time.
